From patent US7235548B2, “Compounds and their use as positive AMPA receptor modulators” (NeuroSearch A/S, priority 1998, dated 2007)

System: AMPA receptors
Test: AMPA evoked single neuron spike activity in rat hippocampus (iontophoretic application of AMPA), in vivo
Settings: for AMPA evoked spike activity: rat hippocampus
Excerpt: Evaluation of the in vivo effects of positive AMPA modulators (PAMs) on the AMPA evoked spike activity in rat hippocampus. Hippocampal single neuron spike activity is strongly influenced by excitatory input, and iontophoretic application of AMPA induces spike activity in vivo in a dose-dependent manner ([…] et al. 1998). […] PAMs potentate AMPA receptor activation in vitro, and if this mechanism also operates in vivo, the i.v. injection of an PAM should enhance AMPA evoked spike activity. Thus, the aim of this study was to test the in vivo effect of a group of in vitro active PAMs. This have been done by studying their ability to enhances AMPA evoked spike activity after i.v. administration. Experiments were performed on male Wistar rats (M & B, Denmark) weighing 280-380 g, housed in two per cage with free access to food and water. […] Additional anaesthetic was given i.v. if the rat responded to a pinch of the back foot. The trachea was cannulated and the rats were placed in a stereotaxic frame and ventilated by a rodent ventilator (Ugo Basile, Comerio-Varese, Italy). Core body temperature was maintained at 37.5° C. by a DC heating pad. The left and dorsal part of the parietal bone was removed by craniotomy and the dura was withdrawn exposing the pia mater and underlying brain, covered with 0.9% NaCl. AMPA (Sigma, USA) was dissolved at 10 mM in 0.2 M NaCl. NMDA (Sigma, USA) was dissolved at 100 mM in 100 mM NaCl. Both solutions were adjusted to pH 7.5-8.0 with NaOH. COMPOUND 61 was dissolved in 200 mM CH3SO3^- Na^+ at a contration of 10 mM for iontophoretic application ([…]) and in isotonic glucose (278 mM) for i.v. administration. Cyclothiazide, COMPOUND 63, COMPOUND 56, COMPOUND 115 and COMPOUND 114 were all dissolved at in 5% chremophore solution at a concentration of 5 mg ml^-1. Evoked neuronal spike activity was analyzed on-line by a computer, saving single spikes and time of event. Neuronal spike activity (number of action potentials s^-1) was monitored on a pulse rate histogram together with indicators for AMPA, COMPOUND 61 and vehicle application. Extracellular recordings of single hippocampal neuron spikes were made with five-barrel glass microelectrodes (5B120F-6, World Precision Instruments Inc., Sarasota, Fla., USA) with a tip diameter of 10-12 μm. The individual barrels were filled with 5 M NaCl (recording), 400 mM NaCl (current balancing), 10 mM COMPOUND 61 in 200 mM CH3SO3^- Na^+ (pH 4.7), 200 mM CH3SO3^- Na^+ (pH 4.7, Vehicle), and the last barrel was filled with the AMPA. Experiments were performed on hippocampal neurons (A=5.5-6.5 mm, L=1.5-2.0 mm, H=2.0-3.0 mm, according to Paxinos & Watson, 1986). Neuronal spike activity was evoked by iontophoretic application of AMPA for periods of 10 to 15 s with 1.5 min intervals. Single neuron spike activity was amplified 5000 times with a bandwidth of 0.3 and 3 kHz (CyberAmp 320 with a Al 402 x50 smartprobe, Axon Instruments, California, USA). On-line and off-line analyses were performed by the Spike2 program with a 1401 plus interface (Cambridge Electronic Design Limited, England). The computer program also recorded mean arterial blood pressure and monitored and controlled iontophoretic application. AMPA was ejected into hippocampus in regular cycles of 100-105 s. […] Recording of neuronal spike activity was continued for at least 45 min after intravenous injection. The PAM reactivity was tested by microiontophoretic application of COMPOUND 61 (20 nA, FIG.).

CN1CCN(S(=O)(=O)c2ccc3c(c2)S(=O)(=O)NC(C2CCCCC2)N3)CC1 (centres unmarked) [Compound 61, 3-Cyclohexyl-7-(4′-methylpiperazino)sulfonyl-1,2,3,4-tetrahydro-1,2,4-benzothiadiazine-1,1-dioxide]
onset of the enhancement after i.v. administration (10 mg kg^−1 i.v.): 20 min | AMPA evoked spike activity (10 mg kg^−1 i.v.): enhanced | increase in AMPA evoked spike activity (10 mg kg^−1 i.v., FIG. 14): 3 fold | AMPA evoked spike activity (iontophoretic application of the compound (20 nA)): enhanced

O=S1(=O)NC(C2CCCCC2)Nc2ccc(S(=O)(=O)N3CCOCC3)cc21 (centres unmarked) [Compound 63, 3-Cyclohexyl-7-morpholinosulfonyl-1,2,3,4-tetrahydro-1,2,4-benzothiadiazine-1,1-dioxide]
initial effect on the AMPA responses (10 mg kg^−1 i.v., before onset of enhancement): initial inhibition | large AMPA responses, evoked by high intensity AMPA stimulation (10 mg kg^−1 i.v., high intensity AMPA (17 nA)): only marginal effect | small AMPA responses, evoked by low intensity AMPA stimulation (10 mg kg^−1 i.v., low intensity AMPA (12 nA)): enhanced

Cc1cc2c(cc1S(=O)(=O)N1CCCCC1)S(=O)(=O)NC(C1CCCC1)N2 (centres unmarked) [Compound 114, 3-Cyclopentyl-6-methyl-7-piperidinosulfonyl-1,2,3,4-tetrahydro-1,2,4-benzothia-diazine-1,1-dioxide]
AMPA evoked spike activity (10 mg kg^−1 i.v.): enhanced | increase of the AMPA responses (10 mg kg^−1 i.v., control level of the AMPA responses low, FIG. 15): 10 fold | AMPA response after administration (10 mg kg^−1 i.v., larger control responses, from 124, FIG. 16): 204 spikes response^−1 | enhancement of the AMPA responses (10 mg kg^−1 i.v., larger control responses, FIG. 16): approximately doubled | AMPA response after administration, mean response (10 mg kg^−1 i.v., low control level, from 21, FIG. 15): 209 spikes response^−1

Cc1cc2c(cc1S(=O)(=O)N1CCOCC1)S(=O)(=O)NC(C1CCCCC1)N2 (centres unmarked) [Compound 115, 3-Cyclohexyl-6-methyl-7-morpholinosulfonyl-1,2,3,4-tetrahydro-1,2,4-benzothiadiazine-1,1-dioxide]
onset of the enhancement after i.v. administration (10 mg kg^−1 i.v.): 2 min | AMPA evoked spike activity (10 mg kg^−1 i.v.): enhancement
